Converted amounts (≈) assume the structure as drawn. “And” between values parts separate entries of the source, which are not always exact repeats. Equal values may be shown once.
How the values were obtained:
SARS-CoV-2 [1] = type: cell-based
SARS-CoV-2 [2] = assay: microbe, parasite or virus in culture; type: cell-based; settings: Severe acute respiratory syndrome coronavirus 2, Vero C1008; Vero E6 cells, observed CPE, dose based on NIC content
MERS-CoV = assay: microbe, parasite or virus in culture; type: cell-based; settings: Middle East respiratory syndrome-related coronavirus, Vero C1008, read-out: EC50 dose for MERS-CoV
[3] = Particle size distribution by laser diffraction (dry powder and reconstituted suspension); settings: after air jet milling (micronized)
[4] = test system: methicillin-resistant S. aureus strain Mu50; assay: Resazurin-based microbroth dilution assay; type: cell-based; settings: S. aureus Mu50, hLYS alone
[5] = FTIR-ATR secondary structure analysis of hLYS; type: physicochemical
[6] = Size exclusion chromatography of hLYS aggregation before and after spray drying and nebulization; type: physicochemical; settings: not nebulized

O=C(Nc1ccc([N+](=O)[O-])cc1Cl)c1cc(Cl)ccc1O [NIC-M, 5-Chloro-N-(2-chloro-4-nitrophenyl)salicylamide]
inhibitory activity against SARS-CoV-2 compared to solubilized NIC (SARS-CoV-2 [1]; NIC dose of 0.125 μg/mL, quantified viral particles): significantly improved activity compared to solubilized NIC
EC50 (SARS-CoV-2 [2]): 0.03 mg/L (≈ 0.0917 µM)
EC50 (MERS-CoV): 0.016 mg/L (≈ 0.0489 µM)

O=C(Nc1ccc([N+](=O)[O-])cc1Cl)c1cc(Cl)ccc1O [niclosamide, 5-Chloro-N-(2-chloro-4-nitrophenyl)salicylamide]
X50 diameter [3]: 2.2 μm
X90 diameter [3]: 4.2 μm and 4.1 μm

hLYS: recombinant human lysozyme (InVitria)
inhibitory activity [4]: No inhibitory activity
activity against SARS-CoV-2 (SARS-CoV-2 [1]; hLYS alone): appeared to exhibit activity against SARS-CoV-2
Anti-parallel β-sheet ([5]; 1618-1625 cm^−1): 21.7%
Parallel β-sheet ([5]; 1633-1637 cm^−1): 0.7%
α-helix ([5]; 1653 cm^−1): 57.6%
Turns ([5]; 1678-1680 cm^−1): 20.2%
Fragment [6]: 0.7%
HMW [6]: 17.2%
Monomer [6]: 82.1%

From patent publication US20240041805A1, “PHARMACEUTICAL COMPOSITIONS OF NICLOSAMIDE AND A PROTEIN” (priority 2020, published 2024)
